According to US5314890A, “1-7 disubstituted xanthine derivatives having antiasthmatic activity, their physiologically acceptable salts, pharmaceutical compositions containing them and process for their preparation” (priority 1990, dated 1994):
Read-outs that look alike come from different tables or passages of the source.

Experiments:
male Swiss mice [1] = experiment: Chlordiazepoxide-induced sleep in mice; format: in vivo, mouse; conditions: 0.55 mmol/kg orally, 1 h before CDO (100 mg/kg i.p.); controls 27.1 ± 3.5 min; * p < 0.01
Method: Starved (20 h) male Swiss mice (20 g body weight) were injected with chlordiazepoxide (CDO) (100 mg/kg i.p.) and the duration of the induced sleep assessed. Sleeping time was defined as the time elapsing from the loss to the recovery of the righting reflex. The drugs were administered orally (0.55 mmol/kg) in a volume of 20 ml/kg 1 h before CDO. CNS excitation was valued as decrease in sleeping time (Table 4).

[2] = tested on: isolated guinea pig bronchi; experiment: "In vitro" antibronchospastic activity in isolated guinea pig bronchi; format: cell-based; conditions: Cavia porcellus
Method: A steady tonic bronchomotor response was produced by administration of carbachol (0.3 μM) or capsaicin (0.3 μM, in presence of thiorphan 10 μM) on which a concentration-response curve with the various xanthine derivatives was carried out.

[3] = Goodman and Gilman, 1985; cited from earlier work
[4] = tested on: anaesthetized guinea pigs; experiment: Antagonism toward acetylcholine- and capsaicin-induced bronchomotor effects in anaesthetized guinea-pig; format: in vivo; conditions: 70 μmol/kg i.v., mean ± s.e.m.; for inhibition percentage of acetylcholine (Ach) induced bronchospasm: 15 min before acetylcholine 25 μg/kg; for inhibition percentage of capsaicin (Caps) induced bronchospasm: 15 min before capsaicin 2.5 μg/kg
Method: Anaesthetized guinea-pig were used D-Tubocurarine (3 mg/kg i.v.) was administered, and a mechanic ventilation (60 strokes/min) with a pump through a tracheal cannula was carried out Drugs were administered intravenously in a volume less than 0.5 ml/kg through a jugular cannula. Acetylcholine (25 μg/kg) or capsaicin (2.5 μg/kg) administration evoked a powerful and transient increase in tracheal insufflation pressure which was repeatable after 30 min. […] Antibronchospastic activity was expressed as inhibition percentage referred to the first increase of tracheal insufflation pressure.

sensitized guinea-pigs = experiment: Antagonism toward antigen-induced bronchospasm in sensitized guinea-pigs; format: in vivo, guinea pig; conditions: 0.55 mmol/kg orally, 1 hour before 0.5% ovalbumin aerosol; mean ± s.e.m.; control 8.4 ± 0.8; * p < 0.05
Method: Guinea-pigs (sensitized with 100 mg/kg s.c. plus 100 mg/kg i.p. of ovalbumin 14 days before) (Herxheimer and Streseman-Arch. Int. Pharmacodyn. Ther. 125, 265; 1960) were challenged by an aerosol of 0.5% ovalbumin, for a period of 10 sec. in a closed chamber.
In a first set of experiments, number of aerosol-induced bronchospasms was registered in control conditions or 1 hr after the oral administration of testing substances.

[5] = Antibronchospastic / bronchodilatory activity, general statement (laboratory tests by the Applicant)
male Swiss mice [6] = experiment: Pentylentetrazol-induced lethality in mice; format: in vivo; conditions: 0.55 mmol/kg orally, 1 h before PTZ (60-75 mg/kg i.p.); controls 10%
Method: The drugs were administered orally (0.55 mmol/kg) in a volume of 20 ml/kg 1 h before PTZ. CNS excitation was valued as increase of PTZ mortality.

[7] = tested on: anaesthetized guinea pigs (sensitized); experiment: Antagonism toward ovoalbumin induced bronchomotor effects in anaesthetized guinea pigs; format: in vivo, guinea pig; conditions: 140 μmol/Kg i.v., 15 min before OA aerosol 0.5% for 20 s; for % inhibition of OA-induced bronchospasm referred to control group: N.A. = not active; for changes in pulmonary insufflation pressure after OA aerosol: controls 1.80 ± 0.15 KPa
Method: Antagonism toward ovoalbumin induced bronchomotor effects in anaesthetized guinea pigs.
Anaesthetized guinea pigs (sensitized with 100 mg/Kg s.c. plus 100 mg/Kg i.p. of ovoalbumin (OA) 14 days before tests) were used as described previously although bronchospasm was produced by OA intratracheal aerosol administration (0.5% for 20 s.).
Antibronchospastic activity was expressed as changes in pulmonary insufflation pressure (KPa) after OA aerosol administration and as inhibition percentage referred to control group.

[8] = Acute oral toxicity in mice; conditions: mouse, in vivo, starved male Swiss mice, observed 10 days, Litchfield and Wilcoxon
Method: Starved (18 h) male Swiss mice (20 g weight) received drugs orally (0.2 ml/10 g weight).
Death and symptoms were evaluated LD50 was obtained according to Litchfield and Wilcoxon (J. Pharm. Expt. Ther. 96, 99, 1949).

[9] = isolated guinea pig bronchi, capsaicin 0.3 μM with thiorphan 10 μM, 95% C.L. in brackets, read-out: IC50, capsaicin-induced tone
[10] = isolated guinea pig bronchi, carbachol 0.3 μM, 95% C.L. in brackets, read-out: IC50, carbachol-induced tone

| SMILES | CDO test sleeping-time (male Swiss mice [1]) | IC50 [2, 9] | IC50 [2, 10] | side effects (in words) [3] | inhibition percentage of acetylcholine (Ach) induced bronchospasm [4] | inhibition percentage of capsaicin (Caps) induced bronchospasm [4] | number of bronchospasms recorded in 5 minutes (bronchospasm/min) (sensitized guinea-pigs) | antibronchospastic / bronchodilatory activity (in words) [5] | PTZ test mortality rate (male Swiss mice [6]) | IC50 ([2]; read-out: IC50, capsaicin-induced tone) | IC50 ([2]; read-out: IC50, carbachol-induced tone) | % inhibition of OA-induced bronchospasm referred to control group [7] | changes in pulmonary insufflation pressure after OA aerosol [7] | LD50 at 240 h [8] |
| --- | --- | --- | --- | --- | --- | --- | --- | --- | --- | --- | --- | --- | --- | --- |
| Cn1c(=O)c2[nH]cnc2n(C)c1=O [Theophylline, 1,3-dimethyl-xanthine, reference compound] | 7.8 ± 2.2 min | 40 µM | 92 µM | side effects on the cardiovascular system and on the central nervous system | 51 ± 8% | 51 ± 7% | 4.6 ± 1.2 bronchospasm/min | – | – | – | – | – | – | – |
| Cn1c(=O)[nH]c2ncn(C)c2c1=O [Paraxanthine, 1,7-dimethyl-xanthine] | 2.3 ± 1.5 min | – | – | – | – | – | – | does not show any significant antibronchospastic activity | 82% | 82 µM | 135 µM | – | – | – |
| CC(C)Cn1cnc2[nH]c(=O)n(C)c(=O)c21 [1-methyl-7-isobutyl-xanthine] | 26.1 ± 3.3 min | 21 µM | 31 µM | – | 54 ± 5% | 52 ± 3% | 5.0 ± 1.1 bronchospasm/min | – | 20% | – | – | 86% | 0.25 ± 0.08 KPa | 303 mg/kg |
| Cn1c(=O)[nH]c2ncn(CC(C)(C)O)c2c1=O [1-methyl-7-(2-methyl-2-hydroxy-propyl)-xanthine] | 64.2 ± 12.8 min | – | – | – | – | – | – | – | 0% | – | – | 36% | 1.15 ± 0.15 KPa | – |
